Data from ChEMBL document CHEMBL4699534, “Optimizing PEG-Extended Apelin Analogues as Cardioprotective Drug Leads: Importance of the KFRR Motif and Aromatic Head Group for Improved Physiological Activity” (J Med Chem, 2020).
Non-standard residues stand in square brackets, D forms with d. Residues, ends and D or L forms follow the SMILES beside them. *: point of attachment. CH3O(CH2CH2O)7C2H4CO = COCCOCCOCCOCCOCCOCCOCCOCCC(=O)*; PEG10 = NCCOCCOCCOCCOCCOCCOCCOCCOCCOCCOCCC(=O)O; Bpa = N[C@@H](Cc1ccc(C(=O)c2ccccc2)cc1)C(=O)O; Phe(4-Br) = N[C@@H](Cc1ccc(Br)cc1)C(=O)O; PEG7 = NCCOCCOCCOCCOCCOCCOCCOCCC(=O)O; Fmoc = O=C(OCC1c2ccccc2-c2ccccc21)*; NMeL = CN[C@@H](CC(C)C)C(=O)O; PEG4 = NCCOCCOCCOCCOCCC(=O)O; PEG3 = NCCOCCOCCOCCC(=O)O; Nle = CCCC[C@H](N)C(=O)O; X1 = COCCOCCOCCOCCC(=O)*; Aib = CC(C)(N)C(=O)O

Tests used:
[1] = Half life in human plasma at 400 uM by HPLC analysis; assay type: ADME, cell-free
[2] = Half life in mouse plasma at 400 uM by HPLC analysis; assay type: ADME, cell-free
[3] = molecular target: T1, Apelin receptor (Rattus norvegicus, UniProt Q9JHG3); assay: Displacement of [125I]-pyr-1-apelin-13 from EGFP-tagged wild-type rat apelin receptor expressed in CHO cell membranes by gamma counting method; set-up: species or system Cell membrane
T1 sequence (Q9JHG3 whole entry): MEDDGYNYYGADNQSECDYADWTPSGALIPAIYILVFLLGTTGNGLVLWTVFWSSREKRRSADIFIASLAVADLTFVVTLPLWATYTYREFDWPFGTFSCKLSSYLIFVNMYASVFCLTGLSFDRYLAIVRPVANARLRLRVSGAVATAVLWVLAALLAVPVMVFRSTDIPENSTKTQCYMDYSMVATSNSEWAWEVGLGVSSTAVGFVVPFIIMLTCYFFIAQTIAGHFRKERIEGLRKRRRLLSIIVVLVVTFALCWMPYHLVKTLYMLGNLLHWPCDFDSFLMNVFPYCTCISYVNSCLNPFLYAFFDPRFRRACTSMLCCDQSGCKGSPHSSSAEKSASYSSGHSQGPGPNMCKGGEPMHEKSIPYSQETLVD

[4] = system: Mus musculus; assay: Cardioprotective activity in C57BL/6 mouse assessed as reduction in mean arterial blood pressure at 1.4 uM/kg, iv measured after 15 mins relative to control; assay type: functional; settings: 0.25 h
[5] = Protein binding in 55% human plasma at 100 uM incubated for 3 hrs by LC/MS detection based equilibrium dialysis; assay type: ADME, cell-free; settings: 55% plasma, read-out: PPB (converted)
[6] = Protein binding in 55% mouse plasma at 100 uM incubated for 3 hrs by LC/MS detection based equilibrium dialysis; assay type: ADME, cell-free; settings: 55% plasma, read-out: PPB (converted)
[7] = Lipophilicity, log D of the compound in pH 7.4 PBS by LC/MS detection based shake flask assay; assay type: physicochemical
[8] = system: Heart; assay: Cardioprotective activity in mouse Langendorff heart perfusion and ischemia-reperfusion injury model assessed as left ventricle developed pressure at 1 uM dosed at start of reperfusion for 10 mins; assay type: functional
[9] = system: Heart; assay: Cardioprotective activity in mouse Langendorff heart perfusion and ischemia-reperfusion injury model assessed as maximum derivative of change in systolic blood pressure over time at 1 uM dosed at start of reperfusion for 10 mins; assay type: functional
[10] = molecular target: T2, Apelin receptor (Homo sapiens, UniProt P35414); assay: Activation of APJ receptor (unknown origin) expressed in Chem-5 cells assessed as stimulation of Ca2+ mobilization by Calcium 6-GF dye based fluorescence based assay; assay type: functional, cell-based
T2 sequence (P35414 whole entry): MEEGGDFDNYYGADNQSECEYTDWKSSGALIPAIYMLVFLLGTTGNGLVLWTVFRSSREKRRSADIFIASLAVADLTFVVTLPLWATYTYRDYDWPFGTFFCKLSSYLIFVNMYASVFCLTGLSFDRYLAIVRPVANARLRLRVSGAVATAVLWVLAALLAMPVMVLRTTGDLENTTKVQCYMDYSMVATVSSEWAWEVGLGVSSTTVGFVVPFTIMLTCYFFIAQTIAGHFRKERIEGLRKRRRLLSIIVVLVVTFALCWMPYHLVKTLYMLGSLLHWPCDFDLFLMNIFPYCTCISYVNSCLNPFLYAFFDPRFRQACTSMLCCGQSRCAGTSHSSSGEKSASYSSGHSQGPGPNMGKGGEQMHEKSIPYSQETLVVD

SMILES: CSCC[C@H](NC(=O)[C@@H]1CCCN1C(=O)CNC(=O)[C@H](CCCCN)NC(=O)[C@H](Cc1c[nH]cn1)NC(=O)[C@H](CO)NC(=O)[C@H](CC(C)C)NC(=O)[C@H](CCCNC(=N)N)NC(=O)[C@@H]1CCCN1C(=O)[C@H](CCCNC(=N)N)NC(=O)[C@H](CCC(N)=O)NC(=O)[C@H](CCCNC(=N)N)NC(=O)[C@H](CCCNC(=N)N)NC(=O)[C@H](Cc1ccccc1)NC(=O)[C@@H](N)CCCCN)C(=O)N1CCCC1C(=O)N[C@@H](Cc1ccccc1)C(=O)O (some centres undefined)
- half-life at 400 µM [1]: 0.02 h
- half-life at 400 µM [2]: 0.03 h
- IC50 [3]: 0.0501 nM
- Activity [4]: 17 mmHg
- fraction unbound at 3 h, 100 µM [5]: 0.43
- fraction unbound at 3 h, 100 µM [6]: 0.49
- logD [7]: -2.57
- Activity [8]: 30 mmHg
- dP/dt max [9]: 1020 mmHg/s

SMILES: CCCC[C@H](NC(=O)[C@@H]1CCCN1C(=O)CNC(=O)[C@H](CCCCN)NC(=O)[C@H](Cc1c[nH]cn1)NC(=O)[C@H](CO)NC(=O)[C@H](CC(C)C)N(C)C(=O)[C@H](CCCNC(=N)N)NC(=O)[C@@H]1CCCN1C(=O)[C@H](CCCNC(=N)N)NC(=O)[C@H](CCC(N)=O)NC(=O)[C@H](CCCNC(=N)N)NC(=O)[C@H](CCCNC(=N)N)NC(=O)[C@H](Cc1ccccc1)NC(=O)[C@@H](N)CCCCN)C(=O)NC(C)(C)C(=O)N[C@@H](Cc1ccc(Br)cc1)C(=O)O (H-KFRRQRPR[NMeL]SHKGP[Nle][Aib][Phe(4-Br)]-OH)
- half-life at 400 µM [1]: 1.2 h
- half-life at 400 µM [2]: 0.9 h
- IC50 [3]: 0.603 nM
- Activity [4]: 30 mmHg
- fraction unbound at 3 h, 100 µM [5]: 0.48
- fraction unbound at 3 h, 100 µM [6]: 0.45
- logD [7]: -2.01
- Activity [8]: 25 mmHg
- dP/dt max [9]: 778 mmHg/s

SMILES: CCCC[C@H](NC(=O)[C@@H]1CCCN1C(=O)CNC(=O)[C@H](CCCCN)NC(=O)[C@H](Cc1c[nH]cn1)NC(=O)[C@H](CO)NC(=O)[C@H](CC(C)C)N(C)C(=O)[C@H](CCCNC(=N)N)NC(=O)[C@@H]1CCCN1C(=O)[C@H](CCCNC(=N)N)NC(=O)[C@H](CCC(N)=O)NC(=O)[C@H](CCCNC(=N)N)NC(=O)[C@H](CCCNC(=N)N)NC(=O)[C@H](Cc1ccccc1)NC(=O)[C@H](CCCCN)NC(=O)CCOCCOCCOCCOCCOCCOCCOCCNC(=O)[C@@H](N)Cc1ccc(C(=O)c2ccccc2)cc1)C(=O)NC(C)(C)C(=O)N[C@@H](Cc1ccc(Br)cc1)C(=O)O (H-[Bpa][PEG7]KFRRQRPR[NMeL]SHKGP[Nle][Aib][Phe(4-Br)]-OH)
- half-life at 400 µM [1]: 8.2 h
- EC50 [10]: 89.1 nM
- IC50 [3]: 1.29 nM
- Activity [4]: 43 mmHg

SMILES: CCCC[C@H](NC(=O)[C@@H]1CCCN1C(=O)CNC(=O)[C@H](CCCCN)NC(=O)[C@H](Cc1c[nH]cn1)NC(=O)[C@H](CO)NC(=O)[C@H](CC(C)C)N(C)C(=O)[C@H](CCCNC(=N)N)NC(=O)[C@@H]1CCCN1C(=O)[C@H](CCCNC(=N)N)NC(=O)[C@H](CCC(N)=O)NC(=O)[C@H](CCCNC(=N)N)NC(=O)[C@H](CCCNC(=N)N)NC(=O)[C@H](Cc1ccccc1)NC(=O)[C@H](CCCCN)NC(=O)CCOCCOCCOCCOCCN)C(=O)NC(C)(C)C(=O)N[C@@H](Cc1ccc(Br)cc1)C(=O)O (H-[PEG4]KFRRQRPR[NMeL]SHKGP[Nle][Aib][Phe(4-Br)]-OH)
- half-life at 400 µM [1]: 2 h
- EC50 [10]: 7.76 nM
- IC50 [3]: 6.31 nM
- Activity [4]: 24 mmHg

SMILES: CCCC[C@H](NC(=O)[C@@H]1CCCN1C(=O)CNC(=O)[C@H](CCCCN)NC(=O)[C@H](Cc1c[nH]cn1)NC(=O)[C@H](CO)NC(=O)[C@H](CC(C)C)N(C)C(=O)[C@H](CCCNC(=N)N)NC(=O)[C@@H]1CCCN1C(=O)[C@H](CCCNC(=N)N)NC(=O)[C@H](CCC(N)=O)NC(=O)[C@H](CCCNC(=N)N)NC(=O)[C@H](CCCNC(=N)N)NC(=O)[C@H](Cc1ccccc1)NC(=O)[C@H](CCCCN)NC(=O)CCOCCOCCOCCOCCOCCOCCOCCN)C(=O)NC(C)(C)C(=O)N[C@@H](Cc1ccc(Br)cc1)C(=O)O (H-[PEG7]KFRRQRPR[NMeL]SHKGP[Nle][Aib][Phe(4-Br)]-OH)
- half-life at 400 µM [1]: 3 h
- EC50 [10]: 2.88 nM
- IC50 [3]: 1.7 nM
- Activity [4]: 35 mmHg
- fraction unbound at 3 h, 100 µM [5]: 0.21
- fraction unbound at 3 h, 100 µM [6]: 0.31
- logD [7]: -1.82

SMILES: CCCC[C@H](NC(=O)[C@@H]1CCCN1C(=O)CNC(=O)[C@H](CCCCN)NC(=O)[C@H](Cc1c[nH]cn1)NC(=O)[C@H](CO)NC(=O)[C@H](CC(C)C)N(C)C(=O)[C@H](CCCNC(=N)N)NC(=O)[C@@H]1CCCN1C(=O)[C@H](CCCNC(=N)N)NC(=O)[C@H](CCC(N)=O)NC(=O)[C@H](CCCNC(=N)N)NC(=O)[C@H](CCCNC(=N)N)NC(=O)[C@H](Cc1ccccc1)NC(=O)[C@H](CCCCN)NC(=O)CCOCCOCCOCCOC)C(=O)NC(C)(C)C(=O)N[C@@H](Cc1ccc(Br)cc1)C(=O)O (X1-KFRRQRPR[NMeL]SHKGP[Nle][Aib][Phe(4-Br)]-OH)
- half-life at 400 µM [1]: 2.8 h
- EC50 [10]: 53.7 nM
- IC50 [3]: 3.31 nM
- Activity [4]: 32 mmHg

SMILES: CCCC[C@H](NC(=O)[C@@H]1CCCN1C(=O)CNC(=O)[C@H](CCCCN)NC(=O)[C@H](Cc1c[nH]cn1)NC(=O)[C@H](CO)NC(=O)[C@H](CC(C)C)N(C)C(=O)[C@H](CCCNC(=N)N)NC(=O)[C@@H]1CCCN1C(=O)[C@H](CCCNC(=N)N)NC(=O)[C@H](CCC(N)=O)NC(=O)[C@H](CCCNC(=N)N)NC(=O)[C@H](CCCNC(=N)N)NC(=O)[C@H](Cc1ccccc1)NC(=O)[C@H](CCCCN)NC(=O)CCOCCOCCOCCOCCOCCOCCOCCOC)C(=O)NC(C)(C)C(=O)N[C@@H](Cc1ccc(Br)cc1)C(=O)O ({CH3O(CH2CH2O)7C2H4CO}-KFRRQRPR[NMeL]SHKGP[Nle][Aib][Phe(4-Br)]-OH)
- half-life at 400 µM [1]: 0.7 h
- EC50 [10]: 8.13 nM
- IC50 [3]: 1.7 nM
- Activity [4]: 30 mmHg

SMILES: CCCC[C@H](NC(=O)[C@@H]1CCCN1C(=O)CNC(=O)[C@H](CCCCN)NC(=O)[C@H](Cc1c[nH]cn1)NC(=O)[C@H](CO)NC(=O)[C@H](CC(C)C)N(C)C(=O)[C@H](CCCNC(=N)N)NC(=O)[C@@H]1CCCN1C(=O)[C@H](CCCNC(=N)N)NC(=O)[C@H](CCC(N)=O)NC(=O)[C@H](CCCNC(=N)N)NC(=O)[C@H](CCCNC(=N)N)NC(=O)[C@H](Cc1ccccc1)NC(=O)[C@H](CCCCN)NC(=O)CCOCCOCCOCCNC(=O)OCC1c2ccccc2-c2ccccc21)C(=O)NC(C)(C)C(=O)N[C@@H](Cc1ccc(Br)cc1)C(=O)O ({Fmoc-PEG3}-KFRRQRPR[NMeL]SHKGP[Nle][Aib][Phe(4-Br)]-OH)
- half-life at 400 µM [1]: 2 h
- EC50 [10]: 17 nM
- IC50 [3]: 2.51 nM
- Activity [4]: 32 mmHg

SMILES: CCCC[C@H](NC(=O)[C@@H]1CCCN1C(=O)CNC(=O)[C@H](CCCCN)NC(=O)[C@H](Cc1c[nH]cn1)NC(=O)[C@H](CO)NC(=O)[C@H](CC(C)C)N(C)C(=O)[C@H](CCCNC(=N)N)NC(=O)[C@@H]1CCCN1C(=O)[C@H](CCCNC(=N)N)NC(=O)[C@H](CCC(N)=O)NC(=O)[C@H](CCCNC(=N)N)NC(=O)[C@H](CCCNC(=N)N)NC(=O)[C@H](Cc1ccccc1)NC(=O)[C@H](CCCCN)NC(=O)CCOCCOCCOCCOCCOCCOCCOCCOCCOCCOCCNC(=O)OCC1c2ccccc2-c2ccccc21)C(=O)NC(C)(C)C(=O)N[C@@H](Cc1ccc(Br)cc1)C(=O)O ({Fmoc-PEG10}-KFRRQRPR[NMeL]SHKGP[Nle][Aib][Phe(4-Br)]-OH)
- half-life at 400 µM [1]: 17.2 h
- EC50 [10]: 4.9 nM
- IC50 [3]: 2.4 nM
- Activity [4]: 28 mmHg
